pEC50: −log10 of the molar value.
Key:
FSHR = target: T1, FSHR (Homo sapiens, UniProt P23945); assay: EC50 of cyclic AMP production in CHO FSHR cells + EC20 FSH (Assay A); type: cell-based; conditions: cyclic AMP production in CHO FSHR cells + EC20 FSH (0.265 pM), HTRF
T1 construct: expressed in transfected cells; host or cells: CHO (Cho-FSHR-LUC-1-1-43)
T1 sequence (P23945 18-695): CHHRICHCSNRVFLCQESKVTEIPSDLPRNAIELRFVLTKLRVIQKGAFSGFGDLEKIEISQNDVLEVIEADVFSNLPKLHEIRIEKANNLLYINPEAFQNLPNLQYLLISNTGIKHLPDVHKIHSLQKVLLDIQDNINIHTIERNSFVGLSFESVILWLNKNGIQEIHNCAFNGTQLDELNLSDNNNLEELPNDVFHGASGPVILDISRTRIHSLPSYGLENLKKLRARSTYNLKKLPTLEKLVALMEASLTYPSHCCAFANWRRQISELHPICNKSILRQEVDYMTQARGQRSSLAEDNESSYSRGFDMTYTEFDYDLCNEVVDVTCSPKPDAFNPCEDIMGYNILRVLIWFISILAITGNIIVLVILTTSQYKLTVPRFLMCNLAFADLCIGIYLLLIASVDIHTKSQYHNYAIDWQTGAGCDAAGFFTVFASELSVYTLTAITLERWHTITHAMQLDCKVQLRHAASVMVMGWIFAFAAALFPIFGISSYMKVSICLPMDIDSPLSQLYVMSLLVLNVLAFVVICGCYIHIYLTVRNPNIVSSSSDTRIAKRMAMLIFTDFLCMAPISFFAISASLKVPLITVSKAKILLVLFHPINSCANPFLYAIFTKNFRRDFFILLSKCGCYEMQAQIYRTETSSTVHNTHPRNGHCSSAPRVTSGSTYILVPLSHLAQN
How it was run: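 cAMP was detected by HTRF as the 665/620 nm ratio. The CHO-FSHR cells had first been exposed for 1 h at 37° C to test compound together with 0.265 pM FSH (EC20) and 200 μM IBMX. Responses are given as percent of the FSH standard maximum.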

[1] = target: T2, follicle-stimulating hormone (FSH) receptor (Rattus norvegicus, UniProt P20395); assay: Rat granulosa EC50 FSH (Assay B); type: cell-based
T2 construct: endogenous in cells; host or cells: rat granulosa cells
T2 sequence (P20395 18-692): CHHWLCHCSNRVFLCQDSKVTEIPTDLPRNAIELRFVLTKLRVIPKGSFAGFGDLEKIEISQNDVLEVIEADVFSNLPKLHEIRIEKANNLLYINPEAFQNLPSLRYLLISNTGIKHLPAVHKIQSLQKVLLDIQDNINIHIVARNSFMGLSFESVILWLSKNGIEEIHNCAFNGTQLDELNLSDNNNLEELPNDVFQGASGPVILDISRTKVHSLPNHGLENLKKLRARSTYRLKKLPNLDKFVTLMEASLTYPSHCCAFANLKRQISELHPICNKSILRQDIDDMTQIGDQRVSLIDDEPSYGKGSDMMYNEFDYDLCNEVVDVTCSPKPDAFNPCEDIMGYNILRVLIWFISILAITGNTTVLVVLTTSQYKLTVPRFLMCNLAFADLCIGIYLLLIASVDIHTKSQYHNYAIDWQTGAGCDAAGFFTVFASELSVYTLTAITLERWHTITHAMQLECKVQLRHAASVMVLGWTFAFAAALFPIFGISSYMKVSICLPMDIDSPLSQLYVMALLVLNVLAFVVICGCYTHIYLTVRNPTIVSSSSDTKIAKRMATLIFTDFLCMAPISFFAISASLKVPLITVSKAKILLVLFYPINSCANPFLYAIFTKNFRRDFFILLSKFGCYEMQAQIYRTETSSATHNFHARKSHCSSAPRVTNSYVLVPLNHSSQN
Description: Example 25. Rat granulosa EC50 FSH (Assay B)
The assay was performed pursuant to the teaching of Yanofsky et al. (2006) Allosteric activation of the follicle-stimulating hormone (FSH) receptor by selective, nonpeptide agonists (JBC 281(19): 13226-13233, which is incorporated by reference in the disclosure of the invention).

Row | Structure (SMILES) | pEC50 (FSHR) | pEC50 [1]
1 | COc1cc2c(cc1-c1cncc(C(N)=O)c1)-c1c(c(C(=O)N(C)C(C)(C)C)nn1-c1ccsc1)CO2 [Compound 167] | > 8.00 | 7.00 to 8.00
2 | COc1cc(F)cc(-n2nc(C(=O)N3CCOCC3(C)C)c3c2-c2cc(-c4ccn(C)n4)c(OC)cc2OC3)c1 [Compound 53, (3,3-dimethylmorpholino)(1-(3-fluoro-5-methoxyphenyl)-7-methoxy-8-(1-methyl-1H-pyrazol-3-yl)-1,4-dihydrochromeno[4,3-c]pyrazol-3-yl)methanone] | 7.00 to 8.00 | 6.30 to 7.00
3 | COc1cc(Cl)cc(-n2nc(C(=O)N(C)C(C)(C)C)c3c2-c2cc(-c4cnn(CC(=O)O)c4)c(OC)cc2OC3)c1 [Compound 85, 2-(4-(3-(tert-butyl(methyl)carbamoyl)-1-(3-chloro-5-methoxyphenyl)-7-methoxy-1,4-dihydrochromeno[4,3-c]pyrazol-8-yl)-1H-pyrazol-1-yl)acetic acid] | 7.00 to 8.00 | < 6.30
4 | COc1cc2c(cc1-c1cc(C(N)=O)ncc1F)-c1c(c(C(=O)N(C)C(C)(C)C)nn1-c1cc(F)cc(F)c1)CO2 [Compound 70, N-tert-butyl-8-(2-carbamoyl-5-fluoropyridin-4-yl)-1-(3,5-difluorophenyl)-7-methoxy-N-methyl-1,4-dihydrochromeno[4,3-c]pyrazole-3-carboxamide] | > 8.00 | 7.00 to 8.00
5 | COc1cc2c(cc1-c1cc(CO)ncc1F)-c1c(c(C(=O)N(C)C(C)(C)C)nn1-c1cc(F)cc(F)c1)CO2 [Compound 75, N-tert-butyl-1-(3,5-difluorophenyl)-8-(5-fluoro-2-(hydroxymethyl)pyridin-4-yl)-7-methoxy-N-methyl-1,4-dihydrochromeno[4,3-c]pyrazole-3-carboxamide] | 7.00 to 8.00 | 7.00 to 8.00
6 | COc1cc2c(cc1-c1ccccn1)-c1c(c(C(=O)N(C)C(C)(C)C)nn1-c1ccsc1)CO2 [Compound 58, N-tert-butyl-7-methoxy-N-methyl-8-(pyridin-2-yl)-1-(thiophen-3-yl)-1,4-dihydrochromeno[4,3-c]pyrazole-3-carboxamide] | 7.00 to 8.00 | < 6.30
7 | COc1cc2c(cc1-c1cncc(C(=O)O)c1)-c1c(c(C(=O)N3CCOCC3(C)C)nn1-c1cc(Cl)cc(Cl)c1)CO2 [Compound 178, 5-(1-(3,5-dichlorophenyl)-3-(3,3-dimethylmorpholine-4-carbonyl)-7-methoxy-1,4-dihydrochromeno[4,3-c]pyrazol-8-yl)nicotinic acid] | > 8.00 | > 8.00
8 | COc1cc2c(cc1-c1ccn(C)n1)-c1c(c(C(=O)N3CCOCC3(C)C)nn1-c1cc(Cl)cc(Cl)c1)CO2 [Compound 9, (1-(3,5-dichlorophenyl)-7-methoxy-8-(1-methyl-1H-pyrazol-3-yl)-1,4-dihydrochromeno[4,3-c]pyrazol-3-yl)(3,3-dimethylmorpholino)methanone] | > 8.00 | 6.30 to 7.00
9 | COc1cc(OC)cc(-n2nc(C(=O)N3CCOCC3(C)C)c3c2-c2cc(-c4cncc(C)c4)c(OC)cc2OC3)c1 [Compound 43, (1-(3,5-dimethoxyphenyl)-7-methoxy-8-(5-methylpyridin-3-yl)-1,4-dihydrochromeno[4,3-c]pyrazol-3-yl)(3,3-dimethylmorpholino)methanone] | > 8.00 | 7.00 to 8.00
10 | COc1cc2c(cc1-c1ccn(C)n1)-c1c(c(C(=O)N(C)C(C)(C)C)nn1-c1cc(F)cc(Cl)c1)CO2 [Compound 27, N-tert-butyl-1-(3-chloro-5-fluorophenyl)-7-methoxy-N-methyl-8-(1-methyl-1H-pyrazol-3-yl)-1,4-dihydrochromeno[4,3-c]pyrazole-3-carboxamide] | 7.00 to 8.00 | < 6.30
11 | COc1cc2c(cc1-c1nn(C)cc1C#N)-c1c(c(C(=O)N3CCOCC3(C)C)nn1-c1cc(F)cc(F)c1)CO2 [Compound 150] | > 8.00 | 7.00 to 8.00
12 | CNC(=O)Cn1nc(C)c(-c2cc3c(cc2OC)OCc2c(C(=O)N(C)C(C)(C)C)nn(-c4cc(Cl)cc(Cl)c4)c2-3)c1C [Compound 140] | > 8.00 | 6.30 to 7.00
13 | COc1cc2c(cc1-c1c(C)nn(CC(=O)N(C)C)c1C)-c1c(c(C(=O)N(C)C(C)(C)C)nn1-c1cc(Cl)cc(Cl)c1)CO2 [Compound 136, N-tert-butyl-1-(3,5-dichlorophenyl)-8-(1-(2-(dimethylamino)-2-oxoethyl)-3,5-dimethyl-1H-pyrazol-4-yl)-7-methoxy-N-methyl-1,4-dihydrochromeno[4,3-c]pyrazole-3-carboxamide] | > 8.00 | 7.00 to 8.00
14 | COc1cc2c(cc1-c1ccn(C)n1)-c1c(c(C(=O)N(CCO)C(C)(C)C)nn1-c1cc(Cl)cc(Cl)c1)CO2 [Compound 122, N-tert-butyl-1-(3,5-dichlorophenyl)-N-(2-hydroxyethyl)-7-methoxy-8-(1-methyl-1H-pyrazol-3-yl)-1,4-dihydrochromeno[4,3-c]pyrazole-3-carboxamide] | 7.00 to 8.00 | 6.30 to 7.00
15 | COc1cc(Cl)cc(-n2nc(C(=O)N(C)C(C)(C)C)c3c2-c2cc(-c4cnn(CCO)c4)c(OC)cc2OC3)c1 [Compound 79, N-tert-butyl-1-(3-chloro-5-methoxyphenyl)-8-(1-(2-hydroxyethyl)-1H-pyrazol-4-yl)-7-methoxy-N-methyl-1,4-dihydrochromeno[4,3-c]pyrazole-3-carboxamide] | 7.00 to 8.00 | 6.30 to 7.00

Continued, values first:

Row | pEC50 (FSHR) | pEC50 [1] | Structure (SMILES)
16 | > 8.00 | 7.00 to 8.00 | COc1cc2c(cc1-c1ccnc(C#N)c1)-c1c(c(C(=O)N(C)C(C)(C)C)nn1-c1cc(Cl)cc(Cl)c1)CO2 [Compound 21, N-tert-butyl-8-(2-cyanopyridin-4-yl)-1-(3,5-dichlorophenyl)-7-methoxy-N-methyl-1,4-dihydrochromeno[4,3-c]pyrazole-3-carboxamide]
17 | 7.00 to 8.00 | 6.30 to 7.00 | COc1cc2c(cc1-c1cc(C(N)=O)ncn1)-c1c(c(C(=O)N(C)C(C)(C)C)nn1-c1cc(Cl)cc(Cl)c1)CO2 [Compound 114, N-tert-butyl-8-(6-carbamoylpyrimidin-4-yl)-1-(3,5-dichlorophenyl)-7-methoxy-N-methyl-1,4-dihydrochromeno[4,3-c]pyrazole-3-carboxamide]
18 | > 8.00 | > 8.00 | COc1cc2c(cc1-c1cncc(NC(C)=O)c1)-c1c(c(C(=O)N(C)C(C)(C)C)nn1-c1cc(Cl)cc(Cl)c1)CO2 [Compound 182, 8-(5-acetamidopyridin-3-yl)-N-tert-butyl-1-(3,5-dichlorophenyl)-7-methoxy-N-methyl-1,4-dihydrochromeno[4,3-c]pyrazole-3-carboxamide]
19 | 7.00 to 8.00 | 6.30 to 7.00 | COc1cc2c(cc1-c1cccc(C#N)c1)-c1c(c(C(=O)N(C)C(C)(C)C)nn1-c1cc(Cl)cc(Cl)c1)CO2 [Compound 18, N-tert-butyl-8-(3-cyanophenyl)-1-(3,5-dichlorophenyl)-7-methoxy-N-methyl-1,4-dihydrochromeno[4,3-c]pyrazole-3-carboxamide]
20 | > 8.00 | 7.00 to 8.00 | COc1cc2c(cc1-c1cncc(C(N)=O)c1C)-c1c(c(C(=O)N(C)C(C)(C)C)nn1-c1cc(Cl)cc(Cl)c1)CO2 [Compound 116, N-tert-butyl-8-(5-carbamoyl-4-methylpyridin-3-yl)-1-(3,5-dichlorophenyl)-7-methoxy-N-methyl-1,4-dihydrochromeno[4,3-c]pyrazole-3-carboxamide]
21 | > 8.00 | > 8.00 | COc1cc2c(cc1-c1cncc(C(N)=O)c1)-c1c(c(C(=O)N(C)C(C)(C)C)nn1-c1cc(Cl)cc(Cl)c1)CO2 [Compound 171]

— patent US10941152B2, “Pyrazole compounds as modulators of FSHR and uses thereof” (TOCOPHERX, INC., priority 2014, dated 2021)
